Tested on: Thrombin
Experiment: Thrombin time measurement (antithrombotic activity) with Thrombitimer2
Assay type: biochemical
Settings: per 0.1 mg of asprin; time until fibrinogen clots are formed; FIG. 8
Description: As for the 4th step, a thrombin time of the divided groups in the 3rd step are measured and the group showing the highest antithrombotic activity is selected. The thrombin time is, but not limited to, a time until fibrinogen clots are formed. For example, with Thrombitimer2 (Behnk Elektronik, Germany), after adding Thrombin (T46481KU-59NIH unit/mg) and fibrinogen, the time until fibrinogen clots are formed is counted.
The activity was measured by counting a thrombin time according to the method described in Choi et al., Kor. J. Pharmacogn. 26, 154-158, 1995 and Son et al., Kor. J. Pharmacogn. 34 (1):52-61, 2004.
Specifically, the thrombin time was measured with Thrombitimer2 (Behnk Elektronik, Germany) wherein a fixed concentration of specimen was dissolved in 10 ? of dimethylsulfoxide (DMSO), the solution was added to a tube with 50 ? of borate buffer (pH7.8), Thrombin 1 unit/50 ? (T46481KU-59NIH unit/mg solid, Sigma Co., USA) was mixed with the solution, the mixture was warmed at 37° C. for 5 minutes, 200 ? of fibrinogen (0.33%, Sigma Co., USA) was added to it, and the time until coaggulation occurs was counted. […]
Antithrombotic activity was measured by counting a thrombin time and the result is an average of at least 3 experiments.

Compound: CC(=O)Oc1ccccc1C(=O)O [asprin]
- thrombin time: 15 s
